Laboratory results as given in ChEMBL document CHEMBL3390848, “Affinity selection and sequence-activity relationships of HIV-1 membrane fusion inhibitors directed at the drug-resistant variants” (Medchemcomm, 2010).
Residues, ends and D or L forms follow the SMILES beside them.

Assays:
[1] = tested on: Human immunodeficiency virus 1; assay: Thermal stability of HIV1 envelope glycoprotein gp41 His-tagged N-terminal heptad repeat N54-drug complex assessed as thermal unfolding transition state by measuring molar ellipticity at 4 to 90 degC by circular dichroic spectra analysis
[2] = tested on: Human immunodeficiency virus 1; assay: Binding affinity to HIV1 His-tagged N-terminal heptad repeat of envelope glycoprotein gp41 assessed as recovery of N54-drug complex after 2 hrs by LC-MS analysis; parameters: concentration or dose not given beside the values
[3] = tested on: Human immunodeficiency virus 1; assay: Antiviral activity against HIV1 NL4-3 harboring gp41 D36G mutant infected in human HeLa cells expressing CD4-LTR-beta-gal assessed as inhibition of viral replication after 48 hrs by MAGI assay; format: functional, organism-based

In the case of `CC[C@H](C)[C@H](NC(=O)[C@H](CC(C)C)NC(=O)[C@H](CCC(=O)O)NC(=O)[C@H](CCC(=O)O)NC(=O)[C@@H](NC(=O)[C@H](CC(C)C)NC(=O)[C@H](CO)NC(=O)[C@@H](NC(=O)[C@H](Cc1ccc(O)cc1)NC(C)=O)[C@@H](C)O)[C@@H](C)CC)C(=O)N[C@@H](CCCCN)C(=O)N[C@@H](CCCCN)C(=O)N[C@@H](CCCNC(=N)N)C(=O)N[C@@H](CCC(=O)O)C(=O)N[C@@H](CCC(=O)O)C(=O)N[C@@H](CCC(N)=O)C(=O)N[C@@H](CCC(N)=O)C(=O)N[C@@H](CCCCN)C(=O)N[C@@H](CCCCN)C(=O)N[C@@H](CC(N)=O)C(=O)N[C@@H](CCC(=O)O)C(=O)N[C@@H](CCC(=O)O)C(=O)N[C@@H](CCC(=O)O)C(=O)N[C@@H](CC(C)C)C(=O)N[C@@H](CCCCN)C(=O)N[C@@H](CCCCN)C(=O)N[C@@H](CC(C)C)C(=O)N[C@@H](CCC(=O)O)C(=O)N[C@@H](CCC(=O)O)C(=O)N[C@@H](Cc1c[nH]c2ccccc12)C(=O)N[C@@H](C)C(=O)N[C@@H](CCCCN)C(=O)N[C@@H](CCCCN)C(=O)N[C@@H](Cc1c[nH]c2ccccc12)C(=O)N[C@@H](CC(N)=O)C(=O)N[C@@H](Cc1c[nH]c2ccccc12)C(=O)N[C@@H](Cc1ccccc1)C(=O)O` (Ac-YTSLIEELIKKREEQQKKNEEELKKLEEWAKKWNWF-OH), the Tm [1] is reported as 49.4 °C, the Activity [2] is reported as 1.5% and the EC50 [3] is reported as 320 nM.
Work on `CC[C@H](C)[C@H](NC(=O)[C@H](CC(C)C)NC(=O)[C@H](CCC(=O)O)NC(=O)[C@H](CCC(=O)O)NC(=O)[C@@H](NC(=O)[C@H](CC(C)C)NC(=O)[C@H](CO)NC(=O)[C@@H](NC(=O)[C@H](Cc1ccc(O)cc1)NC(C)=O)[C@@H](C)O)[C@@H](C)CC)C(=O)N[C@@H](CCCCN)C(=O)N[C@@H](CCCCN)C(=O)N[C@@H](CO)C(=O)N[C@@H](CCC(=O)O)C(=O)N[C@@H](CCC(=O)O)C(=O)N[C@@H](C)C(=O)N[C@@H](CCC(N)=O)C(=O)N[C@@H](CCCCN)C(=O)N[C@@H](CCCCN)C(=O)N[C@@H](CC(N)=O)C(=O)N[C@@H](CCC(=O)O)C(=O)N[C@@H](CCC(=O)O)C(=O)N[C@@H](CCC(=O)O)C(=O)N[C@@H](CC(C)C)C(=O)N[C@@H](CCCCN)C(=O)N[C@@H](CCCCN)C(=O)N[C@@H](CC(C)C)C(=O)N[C@@H](CCC(=O)O)C(=O)N[C@@H](CCC(=O)O)C(=O)N[C@@H](Cc1c[nH]c2ccccc12)C(=O)N[C@@H](C)C(=O)N[C@@H](CCCCN)C(=O)N[C@@H](CCCCN)C(=O)N[C@@H](Cc1c[nH]c2ccccc12)C(=O)N[C@@H](CC(N)=O)C(=O)N[C@@H](Cc1c[nH]c2ccccc12)C(=O)N[C@@H](Cc1ccccc1)C(N)=O` (Ac-YTSLIEELIKKSEEAQKKNEEELKKLEEWAKKWNWF-NH2) yielded a Tm [1] of 70.4 °C, an Activity [2] of 5.6% and an EC50 [3] of 2.7 nM.
With `CC[C@H](C)[C@H](NC(=O)[C@H](CC(C)C)NC(=O)[C@H](CCC(=O)O)NC(=O)[C@H](CCC(=O)O)NC(=O)[C@@H](NC(=O)[C@H](CC(C)C)NC(=O)[C@H](CO)NC(=O)[C@@H](NC(=O)[C@H](Cc1ccc(O)cc1)NC(C)=O)[C@@H](C)O)[C@@H](C)CC)C(=O)N[C@@H](CCCCN)C(=O)N[C@@H](CCCCN)C(=O)N[C@@H](CO)C(=O)N[C@@H](CCC(=O)O)C(=O)N[C@@H](CCC(=O)O)C(=O)N[C@@H](CC(=O)O)C(=O)N[C@@H](CCC(N)=O)C(=O)N[C@@H](CCCCN)C(=O)N[C@@H](CCCCN)C(=O)N[C@@H](CC(N)=O)C(=O)N[C@@H](CCC(=O)O)C(=O)N[C@@H](CCC(=O)O)C(=O)N[C@@H](CCC(=O)O)C(=O)N[C@@H](CC(C)C)C(=O)N[C@@H](CCCCN)C(=O)N[C@@H](CCCCN)C(=O)N[C@@H](CC(C)C)C(=O)N[C@@H](CCC(=O)O)C(=O)N[C@@H](CCC(=O)O)C(=O)N[C@@H](Cc1c[nH]c2ccccc12)C(=O)N[C@@H](C)C(=O)N[C@@H](CCCCN)C(=O)N[C@@H](CCCCN)C(=O)N[C@@H](Cc1c[nH]c2ccccc12)C(=O)N[C@@H](CC(N)=O)C(=O)N[C@@H](Cc1c[nH]c2ccccc12)C(=O)N[C@@H](Cc1ccccc1)C(N)=O` (Ac-YTSLIEELIKKSEEDQKKNEEELKKLEEWAKKWNWF-NH2) the Tm [1] was 71.4 °C, the Activity [2] was 8.2% and the EC50 [3] was 3.5 nM.
`CC[C@H](C)[C@H](NC(=O)[C@H](CC(C)C)NC(=O)[C@H](CCC(=O)O)NC(=O)[C@H](CCC(=O)O)NC(=O)[C@@H](NC(=O)[C@H](CC(C)C)NC(=O)[C@H](CO)NC(=O)[C@@H](NC(=O)[C@H](Cc1ccc(O)cc1)NC(C)=O)[C@@H](C)O)[C@@H](C)CC)C(=O)N[C@@H](CCCCN)C(=O)N[C@@H](CCCCN)C(=O)N[C@@H](CO)C(=O)N[C@@H](CCC(=O)O)C(=O)N[C@@H](CCC(=O)O)C(=O)N[C@@H](CCC(=O)O)C(=O)N[C@@H](CCC(N)=O)C(=O)N[C@@H](CCCCN)C(=O)N[C@@H](CCCCN)C(=O)N[C@@H](CC(N)=O)C(=O)N[C@@H](CCC(=O)O)C(=O)N[C@@H](CCC(=O)O)C(=O)N[C@@H](CCC(=O)O)C(=O)N[C@@H](CC(C)C)C(=O)N[C@@H](CCCCN)C(=O)N[C@@H](CCCCN)C(=O)N[C@@H](CC(C)C)C(=O)N[C@@H](CCC(=O)O)C(=O)N[C@@H](CCC(=O)O)C(=O)N[C@@H](Cc1c[nH]c2ccccc12)C(=O)N[C@@H](C)C(=O)N[C@@H](CCCCN)C(=O)N[C@@H](CCCCN)C(=O)N[C@@H](Cc1c[nH]c2ccccc12)C(=O)N[C@@H](CC(N)=O)C(=O)N[C@@H](Cc1c[nH]c2ccccc12)C(=O)N[C@@H](Cc1ccccc1)C(N)=O` (Ac-YTSLIEELIKKSEEEQKKNEEELKKLEEWAKKWNWF-NH2) gave a Tm [1] of 71.8 °C, an Activity [2] of 8.2% and an EC50 [3] of 3.8 nM.
Compound `CC[C@H](C)[C@H](NC(=O)[C@H](CC(C)C)NC(=O)[C@H](CCC(=O)O)NC(=O)[C@H](CCC(=O)O)NC(=O)[C@@H](NC(=O)[C@H](CC(C)C)NC(=O)[C@H](CO)NC(=O)[C@@H](NC(=O)[C@H](Cc1ccc(O)cc1)NC(C)=O)[C@@H](C)O)[C@@H](C)CC)C(=O)N[C@@H](CCCCN)C(=O)N[C@@H](CCCCN)C(=O)N[C@@H](CO)C(=O)N[C@@H](CCC(=O)O)C(=O)N[C@@H](CCC(=O)O)C(=O)N[C@@H](Cc1ccccc1)C(=O)N[C@@H](CCC(N)=O)C(=O)N[C@@H](CCCCN)C(=O)N[C@@H](CCCCN)C(=O)N[C@@H](CC(N)=O)C(=O)N[C@@H](CCC(=O)O)C(=O)N[C@@H](CCC(=O)O)C(=O)N[C@@H](CCC(=O)O)C(=O)N[C@@H](CC(C)C)C(=O)N[C@@H](CCCCN)C(=O)N[C@@H](CCCCN)C(=O)N[C@@H](CC(C)C)C(=O)N[C@@H](CCC(=O)O)C(=O)N[C@@H](CCC(=O)O)C(=O)N[C@@H](Cc1c[nH]c2ccccc12)C(=O)N[C@@H](C)C(=O)N[C@@H](CCCCN)C(=O)N[C@@H](CCCCN)C(=O)N[C@@H](Cc1c[nH]c2ccccc12)C(=O)N[C@@H](CC(N)=O)C(=O)N[C@@H](Cc1c[nH]c2ccccc12)C(=O)N[C@@H](Cc1ccccc1)C(N)=O` (Ac-YTSLIEELIKKSEEFQKKNEEELKKLEEWAKKWNWF-NH2) has a Tm [1] of 64 °C, an Activity [2] of 5.3% and an EC50 [3] of 2.6 nM.
With `CC[C@H](C)[C@H](NC(=O)[C@H](CC(C)C)NC(=O)[C@H](CCC(=O)O)NC(=O)[C@H](CCC(=O)O)NC(=O)[C@@H](NC(=O)[C@H](CC(C)C)NC(=O)[C@H](CO)NC(=O)[C@@H](NC(=O)[C@H](Cc1ccc(O)cc1)NC(C)=O)[C@@H](C)O)[C@@H](C)CC)C(=O)N[C@@H](CCCCN)C(=O)N[C@@H](CCCCN)C(=O)N[C@@H](CO)C(=O)N[C@@H](CCC(=O)O)C(=O)N[C@@H](CCC(=O)O)C(=O)NCC(=O)N[C@@H](CCC(N)=O)C(=O)N[C@@H](CCCCN)C(=O)N[C@@H](CCCCN)C(=O)N[C@@H](CC(N)=O)C(=O)N[C@@H](CCC(=O)O)C(=O)N[C@@H](CCC(=O)O)C(=O)N[C@@H](CCC(=O)O)C(=O)N[C@@H](CC(C)C)C(=O)N[C@@H](CCCCN)C(=O)N[C@@H](CCCCN)C(=O)N[C@@H](CC(C)C)C(=O)N[C@@H](CCC(=O)O)C(=O)N[C@@H](CCC(=O)O)C(=O)N[C@@H](Cc1c[nH]c2ccccc12)C(=O)N[C@@H](C)C(=O)N[C@@H](CCCCN)C(=O)N[C@@H](CCCCN)C(=O)N[C@@H](Cc1c[nH]c2ccccc12)C(=O)N[C@@H](CC(N)=O)C(=O)N[C@@H](Cc1c[nH]c2ccccc12)C(=O)N[C@@H](Cc1ccccc1)C(N)=O` (Ac-YTSLIEELIKKSEEGQKKNEEELKKLEEWAKKWNWF-NH2) the Tm [1] was 66.2 °C, the Activity [2] was 3.4% and the EC50 [3] was 3 nM.
In the case of `CC[C@H](C)[C@H](NC(=O)[C@H](CC(C)C)NC(=O)[C@H](CCC(=O)O)NC(=O)[C@H](CCC(=O)O)NC(=O)[C@@H](NC(=O)[C@H](CC(C)C)NC(=O)[C@H](CO)NC(=O)[C@@H](NC(=O)[C@H](Cc1ccc(O)cc1)NC(C)=O)[C@@H](C)O)[C@@H](C)CC)C(=O)N[C@@H](CCCCN)C(=O)N[C@@H](CCCCN)C(=O)N[C@@H](CO)C(=O)N[C@@H](CCC(=O)O)C(=O)N[C@@H](CCC(=O)O)C(=O)N[C@@H](Cc1cnc[nH]1)C(=O)N[C@@H](CCC(N)=O)C(=O)N[C@@H](CCCCN)C(=O)N[C@@H](CCCCN)C(=O)N[C@@H](CC(N)=O)C(=O)N[C@@H](CCC(=O)O)C(=O)N[C@@H](CCC(=O)O)C(=O)N[C@@H](CCC(=O)O)C(=O)N[C@@H](CC(C)C)C(=O)N[C@@H](CCCCN)C(=O)N[C@@H](CCCCN)C(=O)N[C@@H](CC(C)C)C(=O)N[C@@H](CCC(=O)O)C(=O)N[C@@H](CCC(=O)O)C(=O)N[C@@H](Cc1c[nH]c2ccccc12)C(=O)N[C@@H](C)C(=O)N[C@@H](CCCCN)C(=O)N[C@@H](CCCCN)C(=O)N[C@@H](Cc1c[nH]c2ccccc12)C(=O)N[C@@H](CC(N)=O)C(=O)N[C@@H](Cc1c[nH]c2ccccc12)C(=O)N[C@@H](Cc1ccccc1)C(N)=O` (Ac-YTSLIEELIKKSEEHQKKNEEELKKLEEWAKKWNWF-NH2), the Tm [1] is reported as 68.4 °C, the Activity [2] is reported as 3.7% and the EC50 [3] is reported as 3 nM.
